Where two headings read alike, the source gives them in different places.
Columns and labels:
[1] = Metabolic stability in cryopreserved hepatocytes, mouse; assay type: in vitro ADME; conditions: mouse, cryopreserved hepatocytes; read-out: Hepatocyte stability t1/2
Experimental: (§1) page 34: UHPLC-MS/MS System: Chromatographic separation was performed on an Acquity UPLC BEH […] with 6500+ Qtrap system. […] software suite. The UPLC column was maintained at 55 °C. Mobile phase A was 0.1% formic acid in MilliQ H2O and Mobile phase B was 0.1% formic acid in acetonitrile. The flow rate was 0.9 […] The mass spectrometer was operated in positive-ion mode with electrospray ionization. MRM transition m/z […] plasma stability and plasma protein binding. The following MS parameters were employed for analyte measurements: ion spray voltage 5 kV, temperature 550 °C, gas 1 and gas 2 were 60, entrance potential (EP): 10 V, declustering potential (DP): 50 V, collision energy (CE): 27 V, and collision cell exit potential (CXP): 16 V. Metabolic Stability in mouse and human cryopreserved hepatocytes. 10 mM test compounds were provided by Compound Sample Group. Diluted 10 mM test compounds and 30 mM positive control compounds (7-ethoxycoumarin) to 1 mM and 3 mM with DMSO in 96-well plates. Diluted 1 mM test compounds and 3 mM positive control compounds to 100 μM and 300 μM dosing solutions with ACN. Cryopreserved cells were thawed, isolated and suspended in Incubation Medium, then diluted with pre-warmed Incubation Medium to 0.5 × 10^6cells/mL. Added 198 μL of pre-warmed cell suspensions in 96 -well plates. Transferred 125 μL of stop solution (acetonitrile containing 200 ng/mL tolbutamide and 200 ng/mL labetalol as internal standards) in a set of pre- labeled 96-well plates. Spike d 2 μL dosing solution to each well of 96 -well plates in duplicates. For T0 Samples, mix ed to achieve a homogenous suspension for about 1 min, then immediately transferred 25 μL of each sample into well containing 125 μL of ice -cold stop solution followed by mixing. Incubated all plates at 37°C in a 95% humidified incubator at 5% CO 2 to start the reactions page 35: with constant shaking at about 600 rpm. At 15, 30, 60 and 90 min, mixed samples and then transferred 25 μL of each sample at each time point to well containing 125 μL of ice -cold stop solution followed by mixing. Medium Control (MC) sample plates (labeled as T0-MC and T90- MC) were prepared at T0 and T90 by adding the same components to each well except cell suspensions. At each corresponding time point, stopped the reactions by removing the plates from incubator and mixing with 125 μL of ice-cold stop solution. Vortexed the plates immediately on a plate shaker at 500 rpm for 10 minutes. Then, centrifuge d all sample plates at 3220 x g for 20 min at 4°C. After centrifugation, 80 μL/well of supernatant in the sample plates were transferred to another set of pre-labeled 96-well plates which containing 240 μL of ultra pure water according to the plate map. Analytical plates were sealed and stored at 4°C until LC-MS/MS analysis. Thawing Medium: Williams' Medium E containing 5% fetal bovine serum and 30% Perc oll solution and other supplements. Incubation Medium: Williams' Medium E (no phenol red) containing 2 mM L-Glutamine and 25 mM HEPES. Stop Solution: Acetonitrile containing 200 ng/mL tolbutamide and labetalol as internal standards. Dilution Solution: Ultra-pure water. The remaining percents of test articles after incubation were calculated by the follow equations: Equation ( 6): Use equation of first order kinetics [NT] […] The data was […] concatenated with a reversed decoy database for evaluating False Discovery Rate (FDR). […]

[2] = Metabolic stability in cryopreserved hepatocytes, human; assay type: in vitro ADME; conditions: human, cryopreserved hepatocytes; read-out: Hepatocyte stability t1/2
Experimental: as §1

[3] = Pharmacokinetics in female CD1 mice; assay type: in vivo, mouse; conditions: mouse; for half-life: CD1, mouse, plasma
Experimental: Three mice were housed in each cage. […] Temperature and humidity were recorded by an auto-controlled data logger system. All the animals were provided a laboratory rodent diet (Altromin, Germany). Reverse osmosis water treated with ultraviolet light was provided ad libitum. Total 27 mice (n = 9/group) were divided into three groups as Group 1, Group 2, and Group 3 with a sparse sampling design (3 mice/time points). […] The formulation vehicle for IV was 5% v/v NMP, 5% v/v Solutol HS-15 and 90% v/v Normal saline, and for PO & IP was 10%v/v NMP, 10%v/v Solutol HS-15. 50%v/v PEG-400 and 30%v/v HPβCD (20%w/v) in saline. […] Immediately after blood collection, plasma was harvested by centrifugation at 12,300×g, 10 min at 4 °C and samples were stored at −70 ± 10 °C until bioanalysis. Concentrations of SJ3149 in mouse plasma samples were determined by fit-for-purpose LC–MS/MS method. Non-Compartmental-Analysis tool of Phoenix WinNonlin® (Version 8.3) was used to assess the pharmacokinetic parameters. Peak plasma concentration (Cmax) and time for the peak plasma concentration (Tmax) were the observed values. The area under the concentration–time curve (AUClast) was calculated by the linear trapezoidal rule. The terminal elimination rate constant, ke was determined by regression analysis of the linear terminal portion of the log plasma concentration-time curve. Clearance was estimated as Dose/AUCinf and Vss as CL*MRT.

[4] = female, CD1, plasma, IP 50 mg/kg
[5] = female, CD1, plasma, IV 3 mg/kg
[6] = female, CD1, plasma, PO 50 mg/kg

O=C1CCC(N2Cc3cc(Nc4noc5ccccc45)ccc3C2=O)C(=O)N1 (stereo not shown) [SJ3149]
half-life at 1 µM [1]: > 3.6 h
half-life at 1 µM [2]: > 3.6 h
T1/2 ([3]; PO 50 mg/kg, 50 mg/kg): 2.57 h
half-life ([3]; female, ip, 50 mg/kg, IP 50 mg/kg): 3.08 h
half-life ([3]; female, iv, 3 mg/kg, IV 3 mg/kg): 0.77 h
half-life ([3]; female, po, 50 mg/kg, PO 50 mg/kg): ~3 h
AUC(0-t) [3, 4]: 17 µg·h/mL
Tmax [3, 4]: 0.25 h
bioavailability [3, 4]: 74%
Cmax ([3]; female, CD1, plasma, IP 50 mg/kg, read-out: C0/Cmax): 6.68 µg/mL
AUC(0-t) [3, 5]: 1.37 µg·h/mL
clearance [3, 5]: 2.17 L/h/kg
Cmax ([3]; female, CD1, plasma, IV 3 mg/kg, read-out: C0/Cmax (C0 back extrapolated)): 4.51 µg/mL
Vd ([3]; female, CD1, plasma, IV 3 mg/kg, read-out: Vss): 0.67 L/kg
AUC(0-t) [3, 6]: 2.85 µg·h/mL
Tmax [3, 6]: 0.25 h
bioavailability [3, 6]: 12%
Cmax ([3]; female, CD1, plasma, PO 50 mg/kg, read-out: C0/Cmax): 4.74 µg/mL
Cmax ([3]; female, CD1, plasma, PO 50 mg/kg, read-out: C0/Cmax (molar)): 12.6 µM

Reference: PMC10791743, “Selective CK1α degraders exert antiproliferative activity against a broad range of human cancer cell lines” (Nature Communications, 2024)
